The source of these data is US20060069132A1, “Azolecarboxamide herbicides” (priority 2004, published 2006).

For test [1], the system named is barnyardgrass. The test is described as follows: Test B flooded paddy test. It is filed as in vivo, Echinochloa crus-galli. Particulars: 1000 g ai/ha, scale 0 to 100 (0 no effect, 100 complete control). In outline: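 Treated at 2-leaf (paddy) or 1–4-leaf, 2–18 cm (postemergence); greenhouse 13–15 d; visual score vs control, 0 none to 100 complete control; dash = not tested.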

Test [2] concerns smallflower umbrella sedge. The test is described as follows: Test C flooded paddy test. It counts as in vivo, Cyperus difformis. The settings on record: for Plant response rating, Sedge, Umbrella: 500 g ai/ha, visual rating after 12 to 14 days.
In test [3] the test system is morningglory. As to the kind of experiment: Test C pre-/postemergence herbicide test. The settings on record: preemergence; for Plant response rating (0 = no effect, 100 = complete control), Morningglory: 125 g ai/ha. It is filed as in vivo, Ipomoea coccinea. Details: key to Plant response rating, Morningglory: 0 = no effect, 100 = complete control. In outline: (§1)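 Emerged plants at the 1- to 4-leaf stage (2–18 cm), or freshly planted seeds, received test chemicals in a non-phytotoxic solvent mixture with surfactant. Response was visually scored against controls after 12 to 14 days in the greenhouse, on a 0 (no effect) to 100 (complete control) scale.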

In test [4] the test system is bermudagrass. As to the kind of experiment: Test C pre-/postemergence herbicide test. It counts as in vivo, Cynodon dactylon. Particulars: preemergence; for Plant response rating (0 = no effect, 100 = complete control), Bermudagrass: 125 g ai/ha. The method in brief:
as §1

Test [5] relates to morningglory. The test is described as follows: Test B pre-/postemergence herbicide test. It counts as in vivo, Ipomoea coccinea. Particulars: for Morningglory plant response rating: postemergence; for Plant response rating, Morningglory: 0 = no effect, 100 = complete control; for Plant response rating, Morningglory / Plant response rating (0 to 100 scale), Morningglory: preemergence; for Plant response rating (0 to 100 scale), Morningglory: 0 is no effect. In outline: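 Herbicidal effect was judged by eye on a 0–100 scale after plants stood 13 to 15 days in the greenhouse following pre- or postemergence treatment with surfactant-containing formulations.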

Setting [6] is: 125 g ai/ha, scale 0 to 100 (0 no effect, 100 complete control).
Setting [7] is: 250 g ai/ha, scale of 0 to 100, 0 is no effect, 100 is complete control.
[8] abbreviates: scale 0 to 100 (0 no effect, 100 complete control).
The mark [9] stands for this setting: 500 g ai/ha, scale 0 to 100 (0 no effect, 100 complete control), visual, 12 to 14 days.
Setting [10] is: 62 g ai/ha, scale 0 to 100, 0 no effect, 100 complete control.
Where [11] appears, read: 125 g ai/ha, visual rating, scale 0 (no effect) to 100 (complete control).
The mark [12] stands for this setting: 500 g ai/ha, scale 0 to 100, 0 is no effect, 100 is complete control.
[13] abbreviates: 125 g ai/ha, 100 is complete control.

Take `CCC1=NN(C(C)(C)C)CC1C(=O)Nc1cc(C(=O)N2CCCC2)ccc1F` (racemic) [Compound 341]: in test [1], the “Barnyardgrass plant response rating” value was found to be 90. Moreover, the “Sedge, Umbrella plant response rating” value in test [2] (62 g ai/ha, scale 0 to 100) stood at 20; in test [2] (setting [6]), 50; in test [2] (setting [7]), 60. In addition, the “Plant response rating, Sedge, Umbrella” value in test [2] (setting [8]) is recorded as 60. Moreover, the “Plant response rating, Morningglory” value in test [3] (62 g ai/ha, scale 0 to 100) turned out to be 0; in test [3] (250 g ai/ha, scale 0-100), 5; in test [3] (setting [9]), 50; in test [5] (500 g ai/ha, visual rating), 30. Moreover, the “Plant response rating (0 = no effect, 100 = complete control), Morningglory” value in test [3] was found to be 5. In addition, the “Plant response rating, Bermudagrass” value was determined as 80 in test [4] (setting [10]); 100 in test [4] (250 g ai/ha, scale 0-100); 100 in test [4] (setting [9]). The “Plant response rating (0 = no effect, 100 = complete control), Bermudagrass” value in test [4] is reported as 80. For the same molecule, the “Morningglory plant response rating” value amounted to 20 in test [5] (setting [11]) and 40 in test [5] (setting [12]).

Consider `CCC1=NN(C(C)(C)C)CC1C(=O)Nc1cc(C(=O)N(C)CC)ccc1F` (racemic) [Compound 342], for which the “Barnyardgrass plant response rating” value in test [1] came out at 90. Besides, the “Sedge, Umbrella plant response rating” value was 40 in test [2] (62 g ai/ha, scale 0 to 100); 50 in test [2] (setting [6]); 70 in test [2] (setting [7]). Moreover, in test [2] (setting [8]), the “Plant response rating, Sedge, Umbrella” value is reported as 80. Besides, the “Plant response rating, Morningglory” value in test [3] (62 g ai/ha, scale 0 to 100) is given as 0; in test [3] (250 g ai/ha, scale 0-100), 70; in test [3] (setting [9]), 100; in test [5] (500 g ai/ha, visual rating), 70. The “Plant response rating (0 = no effect, 100 = complete control), Morningglory” value in test [3] was 5. Besides, the “Plant response rating, Bermudagrass” value in test [4] (setting [10]) amounted to 45; in test [4] (250 g ai/ha, scale 0-100), 90; in test [4] (setting [9]), 90. In addition, in test [4], the “Plant response rating (0 = no effect, 100 = complete control), Bermudagrass” value is given as 60. For the same molecule, the “Plant response rating (0 to 100 scale), Morningglory” value in test [5] (setting [13]) was 10. Further, the results for the “Morningglory plant response rating” value in test [5] (setting [11]) and in test [5] (setting [12]) were 30 and 80, respectively.

For the molecule `CCC1=NN(C(C)(C)C)CC1C(=O)Nc1cc(C(=O)N2CC=CC2)ccc1F` (racemic) [Compound 340], the “Barnyardgrass plant response rating” value in test [1] was 90. For the same molecule, the “Sedge, Umbrella plant response rating” value in test [2] (62 g ai/ha, scale 0 to 100) is listed as 50; in test [2] (setting [6]), 70; in test [2] (setting [7]), 70. Moreover, the “Plant response rating, Sedge, Umbrella” value in test [2] (setting [8]) came to 90. For the same molecule, the “Plant response rating, Morningglory” value turned out to be 0 in test [3] (62 g ai/ha, scale 0 to 100); 10 in test [3] (250 g ai/ha, scale 0-100); 50 in test [3] (setting [9]). The “Plant response rating (0 = no effect, 100 = complete control), Morningglory” value in test [3] is recorded as 5. Moreover, the “Plant response rating, Bermudagrass” value in test [4] (setting [10]) is 20; in test [4] (250 g ai/ha, scale 0-100), 85; in test [4] (setting [9]) it was 100. The “Plant response rating (0 = no effect, 100 = complete control), Bermudagrass” value in test [4] worked out at 70. The “Plant response rating (0 to 100 scale), Morningglory” value in test [5] (setting [13]) is 30. Also, the “Morningglory plant response rating” value in test [5] (setting [11]) is reported as 10; in test [5] (setting [12]), 40.
